Source: patent publication US20110091728A1, “Felbamate With Improved Bulk Density” (priority 2007, published 2011)

How the values were obtained:
[1] = Bulk density determination of felbamate (10 ml graduated cylinder, 50 taps); type: physicochemical
Source text: One important characteristic is tapped bulk density, or simply tapped (or tap) density, that is the maximum packing density of a powder (or blend of powders) achieved under the influence of well defined, externally applied forces (see, http://en.wikipedia.org/wiki/Bulk_density). The minimum packed volume thus achieved depends on a number of factors including particle size distribution, true density, particle shape and cohesiveness due to surface forces including moisture. Therefore, the tap density of a material can be used to predict both its flow properties and its compressibility. These two parameters are important in the overall tabletting process, which requires that loose powders be compacted into a durable solid form with the correct mechanical strength, porosity and dissolution characteristics. These parameters are also important in the formation of oral suspensions, which ideally contain particles of high bulk density, enabling even dispersion of the particles throughout the suspension after shaking and before consumption.
Felbamate (1.211 gm) purified by the above process (Example 3) was poured into a 10 ml graduated cylinder. The untapped volume of felbamate was 3.5 ml, resulting in an untapped bulk density of 0.35 gm/ml which was greater than the untapped bulk density of felbamate prepared by other methods (see below, Examples 9 and 10). The graduated cylinder was tapped until the felbamate (50 taps) no longer settled. The volume of felbamate after tapping was 2.2 ml, resulting in a tapped bulk density of 0.55 gm/ml.
Felbamate (0.972 gm) synthesized by the process disclosed in WO 94/06737 was poured into a 10 ml graduated cylinder. The untapped volume of felbamate was 5.1 ml, resulting in an untapped bulk density of 0.19 gm/ml. The graduated cylinder was tapped until the felbamate (50 taps) no longer settled. The volume of felbamate after tapping was 3.2 ml, resulting in a tapped bulk density of 0.30 gm/ml.
Felbamate (2 gm) synthesized by the process disclosed in U.S. Pat. No. 4,868,327 was purified by adding to 20 ml of methanol, heating the methanol to reflux to obtain a clear solution, cooling the solution to room temperature over three hours with stirring, and isolating the felbamate by filtration and drying under vacuum at 50° C. Felbamate (0.927 gm) purified by this process was poured into a 10 ml graduated cylinder. The untapped volume of felbamate was 6.5 ml, resulting in an untapped bulk density of 0.14 gm/ml. The graduated cylinder was tapped until the felbamate (50 taps) no longer settled. The volume of felbamate after tapping was 2.9 ml, resulting in a tapped bulk density of 0.32 gm/ml.

[2] = as above; type: physicochemical; remark: listed apart in the source

NC(=O)OCC(COC(N)=O)c1ccccc1 [Felbamate, 2-phenyl-1,3-propanediol dicarbamate]
untapped bulk density ([1]; Table I, U.S. Pat. No. 4,868,327): 0.14 g/mL | tapped bulk density ([1]; Table I, U.S. Pat. No. 4,868,327, 50 taps): 0.32 g/mL | untapped bulk density ([1]; Table I, WO 94/06737): 0.19 g/mL | tapped bulk density ([1]; Table I, WO 94/06737, 50 taps): 0.3 g/mL | untapped bulk density ([1]; Table I, purification process as disclosed in Example 3): 0.35 g/mL | tapped bulk density ([1]; Table I, purification process as disclosed in Example 3, 50 taps): 0.55 g/mL | untapped bulk density ([1]; felbamate by process of U.S. Pat. No. 4,868,327, recrystallised from methanol (Example 10)): 0.14 gm/ml | tapped bulk density ([1]; felbamate by process of U.S. Pat. No. 4,868,327, recrystallised from methanol, 50 taps (Example 10)): 0.32 gm/ml | untapped bulk density ([1]; felbamate purified by process of Example 3, 1.211 gm in 10 ml cylinder (Example 8)): 0.35 gm/ml | tapped bulk density ([1]; felbamate purified by process of Example 3, 50 taps (Example 8)): 0.55 gm/ml | tapped bulk density ([1]; felbamate purified from methanol-water (Example 3)): 0.5 gm/ml | tapped bulk density ([1]; felbamate purified from tetrahydrofuran-water (Example 5)): 0.4 gm/ml | untapped bulk density ([1]; felbamate synthesized by process of WO 94/06737 (Example 9)): 0.19 gm/ml | tapped bulk density ([1]; felbamate synthesized by process of WO 94/06737, 50 taps (Example 9)): 0.30 gm/ml | tapped bulk density ([2]; felbamate purified from acetonitrile-water (Example 4)): 0.55 gm/ml | tapped bulk density ([2]; felbamate purified from isopropanol-water (Example 6)): 0.54 gm/ml | tapped bulk density ([2]; felbamate purified from water (Example 7)): 0.35 gm/ml
